Results reported in PubChem BioAssay (NCI).
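Following 48 hours of exposure in 96-well plates, responses at five concentrations were used to interpolate endpoints linearly. GI50: concentration for 50% inhibition of growth. At the TGI there is no net growth.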

What was measured:
Experiment in all cases: inhibition of tumour cell growth, NCI panel, 48 h
IGROV1 ovarian = system: IGROV1 ovarian
MCF7 breast = system: MCF7 breast
M14 melanoma = system: M14 melanoma
786-0 renal = system: 786-0 renal
SK-MEL-2 melanoma = system: SK-MEL-2 melanoma
UO-31 renal = system: UO-31 renal
HCT-116 colon = system: HCT-116 colon
PC-3 prostate = system: PC-3 prostate
SF-539 CNS = system: SF-539 CNS
K-562 leukemia = system: K-562 leukemia

CN(C[C@@H]1COCCO1)S(=O)(=O)Nc1ccc2ccc3ncc(-c4cnn(C)c4)cc3c(=O)c2c1
GI50 (IGROV1 ovarian): 2.5 µM
TGI (IGROV1 ovarian): > 100 µM
GI50 (MCF7 breast): 12.8 µM
TGI (MCF7 breast): > 100 µM
GI50 (M14 melanoma): 3.89 µM
TGI (M14 melanoma): > 100 µM
GI50 (786-0 renal): 6.04 µM
TGI (786-0 renal): > 100 µM
GI50 (SK-MEL-2 melanoma): 3.12 µM
TGI (SK-MEL-2 melanoma): > 29.4 µM
GI50 (UO-31 renal): 1.95 µM
TGI (UO-31 renal): > 100 µM
GI50 (HCT-116 colon): 3.87 µM
TGI (HCT-116 colon): > 100 µM
GI50 (PC-3 prostate): 5.67 µM
TGI (PC-3 prostate): > 100 µM
GI50 (SF-539 CNS): 1.57 µM
TGI (SF-539 CNS): 7.91 µM
GI50 (K-562 leukemia): 6.57 µM
TGI (K-562 leukemia): > 100 µM

CCOC(=O)c1cc2c(n1Cc1ccccc1)-c1oncc1CC2
GI50 (IGROV1 ovarian): 4.98 µM
TGI (IGROV1 ovarian): 60.1 µM
GI50 (MCF7 breast): > 100 µM
TGI (MCF7 breast): > 100 µM
GI50 (M14 melanoma): 3.69 µM
TGI (M14 melanoma): 24.6 µM
GI50 (786-0 renal): 7.51 µM
TGI (786-0 renal): 34.2 µM
GI50 (SK-MEL-2 melanoma): 6.15 µM
TGI (SK-MEL-2 melanoma): 27.3 µM
GI50 (UO-31 renal): 4.32 µM
TGI (UO-31 renal): 40.5 µM
GI50 (HCT-116 colon): 3.45 µM
TGI (HCT-116 colon): 13.7 µM
GI50 (PC-3 prostate): 9.68 µM
TGI (PC-3 prostate): 94.1 µM
GI50 (SF-539 CNS): 4.04 µM
TGI (SF-539 CNS): 25.4 µM
GI50 (K-562 leukemia): 2.48 µM
TGI (K-562 leukemia): > 100 µM

COc1ccc(-c2csc(-c3cc(Cl)cc(Cl)c3Cl)n2)cc1
GI50 (IGROV1 ovarian): 56.8 µM
TGI (IGROV1 ovarian): > 100 µM
GI50 (MCF7 breast): 5.91 µM
TGI (MCF7 breast): > 100 µM
GI50 (M14 melanoma): > 100 µM
TGI (M14 melanoma): > 100 µM
GI50 (786-0 renal): > 100 µM
TGI (786-0 renal): > 100 µM
GI50 (SK-MEL-2 melanoma): > 100 µM
TGI (SK-MEL-2 melanoma): > 100 µM
GI50 (UO-31 renal): > 100 µM
TGI (UO-31 renal): > 100 µM
GI50 (HCT-116 colon): > 100 µM
TGI (HCT-116 colon): > 100 µM
GI50 (PC-3 prostate): 52.2 µM
TGI (PC-3 prostate): > 100 µM
GI50 (SF-539 CNS): 41.8 µM
TGI (SF-539 CNS): > 100 µM
GI50 (K-562 leukemia): 46 µM
TGI (K-562 leukemia): > 100 µM

O=C1CCc2c(sc3[nH]c(=S)n(Cc4ccccc4)c(=O)c23)C1
GI50 (IGROV1 ovarian): 5.11 µM
TGI (IGROV1 ovarian): > 100 µM
GI50 (MCF7 breast): 3.26 µM
TGI (MCF7 breast): 12.4 µM
GI50 (M14 melanoma): 3.75 µM
TGI (M14 melanoma): > 100 µM
GI50 (786-0 renal): 4 µM
TGI (786-0 renal): > 100 µM
GI50 (SK-MEL-2 melanoma): 2.49 µM
TGI (SK-MEL-2 melanoma): 5.81 µM
GI50 (UO-31 renal): 2.62 µM
TGI (UO-31 renal): 9.7 µM
GI50 (HCT-116 colon): 3.38 µM
TGI (HCT-116 colon): > 100 µM
GI50 (PC-3 prostate): 0.616 µM
TGI (PC-3 prostate): > 100 µM
GI50 (SF-539 CNS): 2.15 µM
TGI (SF-539 CNS): 5.61 µM
GI50 (K-562 leukemia): 1.76 µM
TGI (K-562 leukemia): > 100 µM

CN(CCCl)c1ccc(/C=C/C2=[N+](C)c3ccccc3C2(C)C)cc1
GI50 (IGROV1 ovarian): 1.73 µM
TGI (IGROV1 ovarian): 18.6 µM
GI50 (MCF7 breast): 0.516 µM
TGI (MCF7 breast): 10.6 µM
GI50 (M14 melanoma): 1.03 µM
TGI (M14 melanoma): 14.8 µM
GI50 (786-0 renal): 3.9 µM
TGI (786-0 renal): 15.9 µM
GI50 (SK-MEL-2 melanoma): 1.33 µM
TGI (SK-MEL-2 melanoma): 5.62 µM
GI50 (UO-31 renal): 4.39 µM
TGI (UO-31 renal): 17.4 µM
GI50 (HCT-116 colon): 0.307 µM
TGI (HCT-116 colon): 12.2 µM
GI50 (PC-3 prostate): 0.243 µM
TGI (PC-3 prostate): 10.6 µM
GI50 (SF-539 CNS): 2.11 µM
TGI (SF-539 CNS): 13.8 µM
GI50 (K-562 leukemia): 0.491 µM
TGI (K-562 leukemia): 83.5 µM

Cc1nc2n(c(=O)c1CCN1CCC(c3noc4cc(F)ccc34)CC1)CCCC2
GI50 (IGROV1 ovarian): > 50 µM
TGI (IGROV1 ovarian): > 50 µM
GI50 (MCF7 breast): > 50 µM
TGI (MCF7 breast): > 50 µM
GI50 (M14 melanoma): > 50 µM
TGI (M14 melanoma): > 50 µM
GI50 (786-0 renal): > 50 µM
TGI (786-0 renal): > 50 µM
GI50 (SK-MEL-2 melanoma): > 50 µM
TGI (SK-MEL-2 melanoma): > 50 µM
GI50 (UO-31 renal): > 50 µM
TGI (UO-31 renal): > 50 µM
GI50 (HCT-116 colon): > 50 µM
TGI (HCT-116 colon): > 50 µM
GI50 (PC-3 prostate): > 50 µM
TGI (PC-3 prostate): > 50 µM
GI50 (SF-539 CNS): > 50 µM
TGI (SF-539 CNS): > 50 µM
GI50 (K-562 leukemia): > 50 µM
TGI (K-562 leukemia): > 50 µM

CCc1nc(N)nc(N)c1-c1ccc(NCCc2ccccc2)c([N+](=O)[O-])c1
TGI (IGROV1 ovarian): 47.8 µM
TGI (MCF7 breast): 33.6 µM
TGI (M14 melanoma): 39.3 µM
TGI (786-0 renal): 17 µM
TGI (SK-MEL-2 melanoma): 36.7 µM
TGI (UO-31 renal): > 51.4 µM
TGI (HCT-116 colon): 36.7 µM
TGI (PC-3 prostate): > 71.6 µM
TGI (SF-539 CNS): 18 µM
TGI (K-562 leukemia): > 36.3 µM

CNC1C(O)C(OC2C(N)CC(N)C(OC3OC(C(C)O)C(O)C(O)C3N)C2O)OCC1(C)O (stereo not given)
TGI (IGROV1 ovarian): > 100 µM
TGI (MCF7 breast): > 100 µM
TGI (M14 melanoma): > 100 µM
TGI (786-0 renal): > 100 µM
TGI (SK-MEL-2 melanoma): > 100 µM
TGI (UO-31 renal): > 100 µM
TGI (HCT-116 colon): > 100 µM
TGI (PC-3 prostate): > 100 µM
TGI (SF-539 CNS): > 100 µM
TGI (K-562 leukemia): > 100 µM

CC(=O)[O][Hg][c]1ccccc1
GI50 (IGROV1 ovarian): 0.295 µM
TGI (IGROV1 ovarian): 0.934 µM
GI50 (MCF7 breast): 0.197 µM
TGI (MCF7 breast): 0.684 µM
GI50 (M14 melanoma): 0.283 µM
TGI (M14 melanoma): 1.06 µM
GI50 (786-0 renal): 1.43 µM
TGI (786-0 renal): 2.82 µM
GI50 (SK-MEL-2 melanoma): 0.401 µM
TGI (SK-MEL-2 melanoma): 1.27 µM
GI50 (UO-31 renal): 1.23 µM
TGI (UO-31 renal): 2.54 µM
GI50 (HCT-116 colon): 0.264 µM
TGI (HCT-116 colon): 0.667 µM
GI50 (PC-3 prostate): 1.41 µM
TGI (PC-3 prostate): 3.21 µM
GI50 (SF-539 CNS): 1.42 µM
TGI (SF-539 CNS): 2.83 µM
GI50 (K-562 leukemia): 0.294 µM
TGI (K-562 leukemia): 1.31 µM

CC(=O)OC1CC2C(C)(C)C(=O)C=CC2(C)C2CCC3(C)C(c4ccoc4)OC(=O)C4OC43C12C (stereo not given)
TGI (IGROV1 ovarian): > 100 µM
TGI (MCF7 breast): 29.5 µM
TGI (M14 melanoma): 28.1 µM
TGI (786-0 renal): 27.4 µM
TGI (SK-MEL-2 melanoma): 39.2 µM
TGI (UO-31 renal): 15.2 µM
TGI (HCT-116 colon): 11.3 µM
TGI (PC-3 prostate): > 100 µM
TGI (SF-539 CNS): 26.6 µM
TGI (K-562 leukemia): > 100 µM

COc1ccc(Cn2cc3c(c2-c2cc(OC)c(OC)c(OC)c2)CCc2cnoc2-3)cc1[N+](=O)[O-]
GI50 (IGROV1 ovarian): 0.82 µM
TGI (IGROV1 ovarian): 51.5 µM
GI50 (MCF7 breast): 0.454 µM
TGI (MCF7 breast): > 100 µM
GI50 (M14 melanoma): 0.662 µM
TGI (M14 melanoma): > 20.4 µM
GI50 (786-0 renal): 6.74 µM
TGI (786-0 renal): > 43.5 µM
GI50 (SK-MEL-2 melanoma): 0.366 µM
TGI (SK-MEL-2 melanoma): 10.3 µM
GI50 (UO-31 renal): 1.26 µM
TGI (UO-31 renal): > 100 µM
GI50 (HCT-116 colon): 0.587 µM
TGI (HCT-116 colon): > 100 µM
GI50 (PC-3 prostate): 1.39 µM
TGI (PC-3 prostate): > 100 µM
GI50 (SF-539 CNS): 1.12 µM
TGI (SF-539 CNS): 13.8 µM
GI50 (K-562 leukemia): 0.358 µM
TGI (K-562 leukemia): > 100 µM
